From patent US5604095A, “Unsymmetrically linked bisnaphthalimides as antitumor agents” (Cancer Therapy & Research Center, priority 1994, dated 1997)
Like-named read-outs stand apart in the source and are kept apart here.

Assays:
[1] = test system: DLD-2 human colon adenocarcinoma; conditions: literature; cited from earlier work
[2] = cited from earlier work
B16 melanoma [3] = conditions: Chen et al., 1993; cited from earlier work
[4] = test system: MX-1 human breast carcinoma; conditions: literature; cited from earlier work
[5] = test system: solid tumor xenografts, human and murine leukemia, doxorubicin resistant cell lines, colon carcinoma cells; conditions: cited from earlier work
LX-1 lung carcinoma = conditions: literature; cited from earlier work
B16 melanoma [6] = assay: In vivo tumor inhibiting activity vs. B16 melanoma in B6D2F1 mice; conditions: q.d. × 5, i.p., day 7
Description: B16 Melanoma: B6D2F1 mice received i.p. inocula of B16 murine melanoma brei prepared from B16 tumors growing subcutaneously in mice (day 0). On day 1, rumored mice were treated with drugs or vehicle control; the route of drug administration and schedule were selected as appropriate for the study in question. If dosing information for agents was not available, the maximum tolerated dose (MTD) was determined in initial dose finding experiments in non-rumored mice. In a typical experiment, drugs were given at their MTD and 1/2 MTD doses i.p. on a daily×5 schedule.
The mean survival times of all groups were calculated, and results were expressed as mean survival of treated mice/mean survival of control mice (T/C)×100%. A T/C value of 150 means that the mice in the treated group lived 50% longer than those of the control group; this is sometimes referred to as the increase in life space, or ILS value.
Mice that survived for 60 days were considered long term survivors, or cures, in the B16 model. The universally accepted cut-off for activity in this model, which has been used for years by the National Cancer Institute, is T/C=125. Conventional use of B16 over the years has set the following levels of activity: T/C<125, no activity; T/C=125-150, weak activity; T/C=150-200, modest activity; T/C=200-300, high activity; T/C>300, with long term survivors, excellent, curative activity (Goldin et al., 1981).
Statistics were performed on the data using primarily the log rank p-value test.

CS(=O)(=O)O.O=C1c2cccc3cc([N+](=O)[O-])cc(c23)C(=O)N1CCCCNCCCN1C(=O)c2cccc3cc([N+](=O)[O-])cc(c23)C1=O [XB596]
in vivo anti-tumor activity against DLD-2 [1]: demonstrated in vivo anti-tumor activity | water solubility ([2]; Sun et al., 1993): 45 µg/mL | activity against B16 melanoma (B16 melanoma [3]): ineffective against B16 melanoma | in vivo anti-tumor activity against MX-1 [4]: demonstrated in vivo anti-tumor activity

C[C@H](CNCCNC[C@@H](C)N1C(=O)c2cccc3cc([N+](=O)[O-])cc(c23)C1=O)N1C(=O)c2cccc3cc([N+](=O)[O-])cc(c23)C1=O [DMP840, (R,R)-2,2'[1,2-ethanediylbis[imino(1-methyl-2,1-ethanediyl)]]-bis[5-nitro-1H-benz[de]isoquinoline-1,3-(2H)-dione] dimethanesulfonate]
in vivo anti-tumor activity against DLD-2 [1]: anti-tumor efficacy in vivo | water solubility ([2]; reported): 3400 µg/mL | toxicity ([5]; literature): no irreversible toxicities | anti-tumor efficacy in vivo ([5]; solid tumor xenografts, leukemia, doxorubicin resistant lines, colon carcinoma): anti-tumor efficacy in vivo | anti-tumor efficacy in vivo against LX-1 lung carcinoma (LX-1 lung carcinoma): anti-tumor efficacy in vivo | Wt. Ch. (Day 7) (B16 melanoma [6]; 5 mg/kg): +4.6% | Wt. Ch. (Day 7) (B16 melanoma [6]; 10 mg/kg): -0.33% | in vivo anti-tumor activity against MX-1 [4]: anti-tumor efficacy in vivo
